The target of test [1] is T1, mouse Fpr3 (Fpr-rs1) (Mus musculus, UniProt O08790).
T1 construct: expressed in transfected cells; host or cells: HEK293T (DSMZ # ACC-635), transient transfection with jetPEI
T1 sequence (O08790 1-351): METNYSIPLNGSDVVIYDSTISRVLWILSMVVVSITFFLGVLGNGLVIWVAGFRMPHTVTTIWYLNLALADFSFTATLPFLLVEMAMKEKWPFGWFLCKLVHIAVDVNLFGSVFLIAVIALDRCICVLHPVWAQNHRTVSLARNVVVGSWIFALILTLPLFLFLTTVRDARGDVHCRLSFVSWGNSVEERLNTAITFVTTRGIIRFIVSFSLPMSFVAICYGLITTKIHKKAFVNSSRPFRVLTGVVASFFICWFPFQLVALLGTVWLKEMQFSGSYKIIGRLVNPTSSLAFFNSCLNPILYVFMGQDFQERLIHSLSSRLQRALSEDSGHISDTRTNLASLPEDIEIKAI
Kind of test: Concentration-response Ca2+ imaging of Fpr3-transfected HEK293T cells (Fig. 2f, h, j). Format: cell-based. The settings on record: Ca2+ responses of Fpr3-transfected HEK293T; Fluo-4/AM, FLIPR; buffer C1 pH 7.2; Fig. 2f, h, j. The protocol: An Fpr3 gene subcloned from genomic DNA of C57BL/6J mice into pcDNA3.1 (Invitrogen) was used in heterologous experiments[21],[80]. HEK293T (DSMZ # ACC-635) cells were seeded at 20–30% confluence on poly-D-lysine-coated (10 µg/ml in PBS) black 96-well µCLEAR-Plates (Greiner Bio-One). Cells were transfected 24 h later using jetPEI™ (Polyplus-transfection SA) according to the manufacturer’s protocol for 96-well transfections. For Ca^2+ imaging experiments, 0.125 µg of DNA plasmid encoding Fpr3 were cotransfected with equal amounts of a plasmid encoding Gα16, a promiscuous G protein α-subunit. Ca^2+ signals to agonist stimulation were recorded 48 h post transfection using the Ca^2+ indicator dye Fluo-4/AM (Molecular Probes) and a fluorescence imaging plate reader (FLIPR) system (Molecular Devices).
We used custom-made peptides with a length of 6–21 amino acids to screen for agonists. Sequences of fMet peptides were designed according to motifs present at the N-termini of 15,125 specific bacterial proteins as annotated in UniProt. Peptides were chemically synthesised, purified, and verified by mass spectroscopy (MALDI-TOF) by commercial suppliers. […] Source, sequence and purity of each peptide are listed in Supplementary Data 1. Lyophilised peptides were routinely dissolved in the Ca^2+ imaging assay buffer C1 (130 mM NaCl, 10 mM HEPES, 5 mM KCl, 2 mM CaCl2, 5 mM glucose, pH 7.2) as 0.2–1 mM stock solutions and kept in small aliquots at −20 °C until use.

Test [2] has as its system vomeronasal sensory neurons (VSNs). Kind of test: Density of responding VSN knobs in mice of various genotypes, Rhod-2 Ca2+ imaging (Fig. 7a, b). The settings on record: f-MKKFRW 1 µM or PUM; for density of responding knobs: mean ± s.d. In kind it is cell-based, mouse. The text has this: Mice (6–20 week old, either sex) were euthanized by CO2 inhalation according to institutional guidelines. After decapitation, the skin was removed from the skull, the mandible was cut off and the cranium was opened by a sagittal cut, 1–2-mm right-lateral in parallel to the midline. The palate and the right incisor were removed and the hemisected skull was mounted in low-melting agarose (4%). The bony capsule of the VNO was opened with fine forceps and the nonsensory epithelium was stripped off. Tissue and cell debris were gently washed off, and the en face preparation was superfused with physiological S1 solution (120 mM NaCl, 25 mM NaHCO3, 5 mM KCl, 1 mM MgSO4, 1 mM CaCl2, 10 mM glucose, 5 mM BES, pH 7.3) saturated with carbogen (95% O2, 5% CO2).
Loading of the VNE with Rhod-2/AM (5–15 µM, 1 h) was performed in S1 solution under carbogen atmosphere at RT. Images were taken with an upright confocal laser scanning microscope (Leica TCS SP5 II, 20x water immersion objective HCX APO L20x/1.0w) equipped with Ar and He/Ne lasers. GFP was excited at 488 nm, Venus at 514 nm and Rhod-2 at 543 nm. Emission was measured at 490–520 nm (GFP), 520–600 nm (Venus) and 560–680 nm (Rhod-2). To minimise interference between Venus and Rhod-2 fluorescence, images were taken sequentially (sample interval per image, 3–4 s). Peptide stimuli were applied to the VNE surface with a local perfusion system which, when positioned close to the anterior end of the VNO, produced a continuous solution stream from rostral to caudal along the VNO axis. Data analysis was performed with the open source software ImageJ (NIH). Ca^2+ responses of individual dendritic knobs were normalised to the knob resting fluorescence level obtained before stimulation (ratio Fx/F0, Fx = actual fluorescence; F0 = mean fluorescence of 3–5 images before ligand application). Mapping was performed by superimposing Ca^2+ peak images onto images showing intrinsic fluorescence for specific markers.
Predator urine mix was composed of urine from mountain lion, coyote, bobcat, fox and marten (at equal volume ratios), purchased from Predatorpee (USA) and Kieferle (Germany). The fMet peptides were as described above. Stimuli were applied in S2 solution (140 mM NaCl, 5 mM KCl, 10 mM HEPES, 1 mM CaCl2, 1 mM MgCl2, 10 mM glucose, pH 7.3 with NaOH).
For calculations of VSN knob density, we analysed randomly selected VNE areas, each containing several hundred knobs. The mean density of OMP-GFP+ knobs was 11.25 knobs/100 µm². Through the knob density and the VNE surface area, an estimate of the total number of VSNs per VNO can be made. Assuming a mean lumen diameter of 450 µm, a length of 2 mm and an end-to-end semilunar cross-sectional shape of the VNO, a number of ~150,000 VSNs (per side) can be estimated. This number is consistent with our previous estimates.

The mark [3] stands for this setting: B6, B2m-Venus+/− and NP2∆+/− mice pooled, n = 14 mice.

Entries after “also recorded” stand apart in the source; their conditions may differ. Peptide text beside a SMILES is read from it. * marks the point of attachment. For = O=C*

As a reminder, the EC50 is the concentration giving half of the maximal effect. The low end stands for higher potency in that assay, the high end for lower potency in that assay. In test [1], `CSCC[C@H](NC=O)C(=O)N[C@@H](CCCCN)C(=O)N[C@@H](CCCCN)C(=O)N[C@@H](Cc1ccccc1)C(=O)N[C@@H](CCCNC(=N)N)C(=O)N[C@@H](Cc1c[nH]c2ccccc12)C(=O)O` [f-MKKFRW] (For-MKKFRW-OH) registered a 50% effective concentration (EC50) of 7.7 µM. Further, the “VSN Ca2+ responses, in words” value in test [2] (129Sv mice) was “no responses; also recorded: fail to respond”; in test [2] (Trpc2 −/− mice) it was “absent; also recorded: fail to respond”; in test [2] (cGαo −/− mice) it was “absent; also recorded: fail to respond”; in test [2] (∆Fpr3-lacZ −/− mice), “absent; also recorded: fail to respond”. In addition, the figures for the “density of responding knobs” value in test [2] (B2m-Venus +/−), in test [2] (B6) and in test [2] (NP2∆ +/−) were 0.2 ± 0.1%, 0.12 ± 0.04% and 0.2 ± 0.09%, respectively. Further, the “density of responding knobs, mean” value in test [2] (setting [3]) is recorded as 0.16 ± 0.08%. Moreover, in test [2] (setting [3]), the “density of responding knobs, range” value was 0.07 to 0.29%.

Values taken from paper PMC6814738, “Bacterial MgrB peptide activates chemoreceptor Fpr3 in mouse accessory olfactory system and drives avoidance behaviour” (Nature Communications, 2019).
